From ChEMBL document CHEMBL1130924, “Potent inhibition of protein-tyrosine phosphatase-1B using the phosphotyrosyl mimetic fluoro-O-malonyl tyrosine (FOMT)” (Bioorg Med Chem Lett, 1998)
Peptide text beside a SMILES is read from it. * marks the point of attachment. X1 = O=C(O)C(C(=O)O)*

What was measured:
[1] = molecular target: T1, Tyrosine-protein phosphatase non-receptor type 1 (Homo sapiens, UniProt P18031); test: Compound was evaluated for the binding affinity against protein-tyrosine phosphatase 1B (PTP1B)
T1 sequence (P18031 whole entry): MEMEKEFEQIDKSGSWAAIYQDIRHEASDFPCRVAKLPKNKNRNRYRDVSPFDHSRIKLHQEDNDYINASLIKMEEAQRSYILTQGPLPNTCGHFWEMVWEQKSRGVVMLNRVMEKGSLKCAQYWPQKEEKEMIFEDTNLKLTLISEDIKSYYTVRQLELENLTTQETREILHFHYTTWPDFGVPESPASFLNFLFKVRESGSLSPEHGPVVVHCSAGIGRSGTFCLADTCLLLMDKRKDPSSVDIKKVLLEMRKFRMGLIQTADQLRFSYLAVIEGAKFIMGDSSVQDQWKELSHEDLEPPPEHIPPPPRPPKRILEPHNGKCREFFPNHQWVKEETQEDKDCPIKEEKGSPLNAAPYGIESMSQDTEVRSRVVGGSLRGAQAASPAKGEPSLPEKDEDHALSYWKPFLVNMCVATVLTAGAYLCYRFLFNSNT

[2] = molecular target: T1, Tyrosine-protein phosphatase non-receptor type 1; test: Compound concentration that cause 50% inhibition of protein-tyrosine phosphatase 1B (PTP1B)

| Ki [1] | IC50 [2] | Structure (SMILES) |
| --- | --- | --- |
| 0.17 µM | – | CC(C)C[C@@H]1NC(=O)[C@H](Cc2ccc(OC(F)(C(=O)O)C(=O)O)cc2)NC(=O)[C@@H](CCC(=O)O)NC(=O)[C@H](CC(=O)O)NC(=O)[C@@H](C)NC(=O)[C@H](CC(=O)O)NC(=O)CSCC(C(N)=O)NC1=O (some centres undefined) |
| – | 10 µM | N[C@@H](Cc1ccc(OC(C(=O)O)C(=O)O)cc1)C(=O)O |
| 13 µM | – | CC(=O)N[C@@H](CC(=O)O)C(=O)N[C@@H](C)C(=O)N[C@@H](CC(=O)O)C(=O)N[C@@H](CCC(=O)O)C(=O)N[C@@H](Cc1ccc(OC(C(=O)O)C(=O)O)cc1)C(=O)N[C@@H](CC(C)C)C(N)=O (Ac-DADEY(X1)L-NH2) |
| – | 1 µM | N[C@@H](Cc1ccc(OC(F)(C(=O)O)C(=O)O)cc1)C(=O)O [FLUOROMALONYL TYROSINE] |
